Laboratory results published in US5736529A, “Use of NAD-related compounds in the treatment of neural trauma to inhibit neurodegeneration” (priority 1996, dated 1998).
“Also recorded” adds a separate entry of the source.

Legend:
[1] = system: hydroxyl radicals generated by the addition of 0.4M hydrogen peroxide; test: Quenching of hydroxyl radicals (EPR); settings: 0.1M nicotinamide
Description: (§1) EPR spectra were measured at 23° and 100 kHz in a Bruker model ECS 106 spectrometer (Bruker, Karlsruhe, Germany). The EPR conditions were: modulation amplitude 0.483G, microwave power 20 mW and time constant 1.3 seconds.

ATP = settings: known effect of nicotinamide; cited from earlier work
[2] = system: poly(ADP-ribose) polymerase (PADPRP); settings: cited from earlier work
24 month old mice = settings: mouse, in vivo, 500 mg/kg
[3] = system: superoxide radicals produced by xanthine oxidase; test: Quenching of superoxide radicals (EPR); settings: 0.1M nicotinamide
Description: as §1

[4] = system: dopaminergic neurons in the midbrain; test: Apoptosis in MPTP treated mice (In Situ Apoptosis Detection Kit, tyrosine hydroxylase staining); type: in vivo, mouse (C57BL/6); settings: MPTP 25 mg/kg ip twice; 48 hours
Description: After 48 hours the mice were perfused through the left ventricle with phosphate buffered saline (PBS) and then with 4% formaldehyde and 0.2% glutaraldehyde in PBS. The brains were coronally sliced into 50μ sections in a vibrating microtome.
To detect individual cells undergoing apoptosis, the In Situ Apoptosis Detection Kit (Oncor) was used. In this method, the fragmented DNA ends are extended with digoxigenin-dUTP. An anti-digoxigenin antibody then binds to the extension and is detected by a peroxidase reaction as previously described.
Tyrosine hydroxylase staining was done to identify dopaminergic neurons in the substantia nigra. The IgG polyclonal antibodies used were: a rabbit antibody to tyrosine hydroxylase; a sheep antibody to rabbit IgG and a rabbit antibody to horseradish peroxidase with the horseradish peroxidase coupled to the antibody^22. The tyrosine hydroxylase-stained brain slices were mounted on glass slides, dehydrated and coverslipped with balsam.

[5] = system: DNA in midbrain and striatum of C57BL/6 mice; test: Fluorimetric assay of DNA fragmentation in MPTP treated mice (Table 7); type: in vivo, mouse (C57BL/6); settings: for DNA damage, MIDBRAIN: MPTP 25 mg/kg ip twice, mean ± S.D.
From the text: A fifth group was the control. Brains were removed and the midbrain and striatum isolated.

xanthine oxidase = settings: previous studies; cited from earlier work

NC(=O)c1cccnc1 [nicotinamide]
quenching of hydroxyl radicals [1]: able to quench hydroxyl radicals
ATP levels (ATP): elevate NAD levels and ATP levels
inhibition of poly(ADP-ribose) polymerase [2]: inhibits poly(ADP-ribose) polymerase; also recorded: weak inhibitor
deaths (24 month old mice): one out of six
quenching of superoxide radicals [3]: able to quench superoxide radicals

CN1CC=C(c2ccccc2)CC1 [MPTP, 1-methyl-4-phenyl-1,2,3,6-tetrahydropyridine]
apoptotic cells in dopaminergic neurons in the midbrain [4]: Apoptotic cells with shrunken and fragmented nuclei were detected
DNA fragmentation in the midbrain ([5]; 25 mg/kg MPTP twice, 48 hours, p<0.05): Significant DNA fragmentation
DNA damage, MIDBRAIN ([5]; 2 hours): 0.9108 ± 0.2233 per gram of tissue
DNA damage, MIDBRAIN ([5]; 48 hours, * p<0.05 vs control): 1.6373 ± 0.4567 per gram of tissue

C[n+]1ccc(-c2ccccc2)cc1 [MPP+]
substrate for xanthine oxidase (xanthine oxidase): can act as a substrate for xanthine oxidase
